# Columns and labels:
# [1] = tested on: H1975 (KRAS wild type human lung adenocarcinoma cell line); assay: KRAS 3D-Cell Proliferation Assay, H1975 (Example 503); type: cell-based; conditions: Homo sapiens, NCI-H1975, 168 h, H1975 3D culture, 7 days, CellTiter-Glo 3D; read-out: Prolif H1975 3D ATP IC50
# Summary of the method: (§1)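 IC50s come from a 4-parameter Hill fit of luminescence (CellTiter-Glo 3D) normalized between DMSO (0%) and 1 μM staurosporine (100%). Cells in low-attachment 3D culture, RPMI-1640 with 10% FBS, received serial compound dilutions (0.3% DMSO) after overnight and were incubated 7 days at 37 °C.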
# [2] = tested on: HPAC (homozygous mutant KRAS G12D human pancreatic cell line); assay: KRAS 3D-Cell Proliferation Assay, HPAC (Example 503); type: cell-based; conditions: Homo sapiens, HPAC, 168 h, HPAC 3D culture, 7 days, CellTiter-Glo 3D; read-out: Prolif HPAC 3D ATP IC50
# Summary of the method: as §1
SMILES,IC50 [1] [nM],IC50 [2] [nM]
"Cc1nc(N)cc(-c2nc3c4c(nc(OCC56CCCN5CC(F)C6)nc4c2F)N2CC4CCC(N4)[C@H]2[C@@H](C(F)(F)F)O3)c1C(F)(F)F (stereo in doubt) [Compound 243, 4-((6R,9S)-1-fluoro-12-(((2S,7aR)-2-fluorotetrahydro-1H-pyrrolizin-7a(5H)-yl)methoxy)-5-(trifluoromethyl)-5a,6,7,8,9,10-hexahydro-5H-4-oxa-3,10a,11,13,14-pentaaza-6,9-methanonaphtho[1,8-ab]heptalene-2-yl)-6-methyl-5-(trifluoromethyl)pyridin-2-amine]",20000,2000
"Cc1c(F)c(N)c(F)c(-c2nc3c4c(nc(OC[C@@]56CCCN5C/C(=C\F)C6)nc4c2F)N2C[C@H]4CC[C@H](N4)[C@H]2[C@H](C)O3)c1C(F)(F)F [Compound 229, 2,6-Difluoro-3-((5S,5aS,6S,9R)-1-fluoro-12-(((S,Z)-2-(fluoromethylene)tetrahydro-1H-pyrrolizin-7a(5H)-yl)methoxy)-5-methyl-5a,6,7,8,9,10-hexahydro-5H-4-oxa-3,10a,11,13,14-pentaaza-6,9-methanonaphtho[1,8-ab]heptalene-2-yl)-5-methyl-4-(trifluoromethyl)aniline]",639,1.82
"Cc1nc(N)cc(-c2nc3c4c(nc(OCC5(CN6CC7(C6)CC7(F)F)CC5)nc4c2F)N2C[C@H]4CC[C@H](N4)[C@H]2[C@H](C)O3)c1C(F)(F)F [Compound 277, 4-((5S,5aS,6S,9R)-12-((1-((1,1-difluoro-5-azaspiro[2.3]hexan-5-yl)methyl)cyclopropyl)methoxy)-1-fluoro-5-methyl-5a,6,7,8,9,10-hexahydro-5H-4-oxa-3,10a,11,13,14-pentaaza[6,9]methanonaphtho[1,8-ab]heptalene-2-yl)-6-methyl-5-(trifluoromethyl)pyridin-2-amine]",974,2.09
"CO[C@H]1CN(CC2(COc3nc4c5c(nc(-c6cc(N)nc(C)c6C(F)(F)F)c(F)c5n3)O[C@@H](C)[C@@H]3[C@@H]5CC[C@H](CN43)N5)CC2)C[C@@H]1F [Compound 291, 4-((5S,5aS,6S,9R)-1-fluoro-12-((1-(((3S,4S)-3-fluoro-4-methoxypyrrolidin-1-yl)methyl)cyclopropyl)methoxy)-5-methyl-5a,6,7,8,9,10-hexahydro-5H-4-oxa-3,10a,11,13,14-pentaaza-6,9-methanonaphtho[1,8-ab]heptalen-2-yl)-6-methyl-5-(trifluoromethyl)pyridin-2-amine]",12200,4.09
Cc1c(F)c(N)cc(-c2nc3c4c(nc(OC[C@@H](F)CN5CC(CO)(CO)C5)nc4c2F)N2C[C@H]4CC[C@H](N4)[C@H]2[C@H](C)O3)c1C(F)(F)F [Compound 146],20000,1740
"C[C@@H]1Oc2nc(-c3cc(N)c(F)c(F)c3C(F)(F)F)c(F)c3nc(OCC45CCN4CC(F)(F)C5)nc(c23)N2C[C@H]3CC[C@H](N3)[C@@H]12 (stereo partly drawn) [Compound 155, 5-((5S,5aS,6S,9R)-12-((3,3-difluoro-1-azabicyclo[3.2.0]heptan-5-yl)methoxy)-1-fluoro-5-methyl-5a,6,7,8,9,10-hexahydro-5H-4-oxa-3,10a,11,13,14-pentaaza-6,9-methanonaphtho[1,8-ab]heptalen-2-yl)-2,3-difluoro-4-(trifluoromethyl)aniline]",4750,8.84
"CCc1c(F)c(N)cc(-c2nc3c4c(nc(OC[C@@H]5CC[C@H]6COCCN65)nc4c2F)N2C[C@H]4CC[C@H](N4)[C@H]2[C@H](C)O3)c1C(F)(F)F [Compound 232, 3-Ethyl-2-fluoro-5-((5S,5aS,6S,9R)-1-fluoro-12-(((6S,8aS)-hexahydro-1H-pyrrolo[2,1-c][1,4]oxazin-6-yl)methoxy)-5-methyl-5a,6,7,8,9,10-hexahydro-5H-4-oxa-3,10a,11,13,14-pentaaza-6,9-methanonaphtho[1,8-ab]heptalen-2-yl)-4-(trifluoromethyl)aniline]",10500,77
"Cc1c(F)c(N)cc(-c2nc3c4c(nc(OCC5(CN6CCO[C@H](CF)C6)CC5)nc4c2F)N2C[C@H]4CC[C@H](N4)[C@H]2[C@H](C)O3)c1C(F)(F)F [Compound 171, 2-Fluoro-5-((5S,5aS,6S,9R)-1-fluoro-12-((1-(((S)-2-(fluoromethyl)morpholino)methyl)cyclopropyl)methoxy)-5-methyl-5a,6,7,8,9,10-hexahydro-5H-4-oxa-3,10a,11,13,14-pentaaza-6,9-methanonaphtho[1,8-ab]heptalen-2-yl)-3-methyl-4-(trifluoromethyl)aniline]",904,1.33
"Cc1c(F)c(N)cc(-c2nc3c4c(nc(OCCCN5CCOCC5)nc4c2F)N2C[C@H]4CC[C@H](N4)[C@H]2[C@H](C)O3)c1C(F)(F)F [Compound 138, 2-Fluoro-5-((5S,5aS,6S,9R)-1-fluoro-5-methyl-12-(3-morpholinopropoxy)-5a,6,7,8,9,10-hexahydro-5H-4-oxa-3,10a,11,13,14-pentaaza-6,9-methanonaphtho[1,8-ab]heptalen-2-yl)-3-methyl-4-(trifluoromethyl)aniline]",2550,15.1
"Cc1c(F)c(N)c(F)c(-c2nc3c4c(nc(OC[C@@]56CCCN5C[C@H](F)C6)nc4c2F)N2C[C@H]4CC[C@H](N4)[C@H]2[C@H](C)O3)c1CC(F)F [Compound 175, 4-(2,2-Difluoroethyl)-2,6-difluoro-3-((5S,5aS,6S,9R)-1-fluoro-12-(((2R,7aS)-2-fluorotetrahydro-1H-pyrrolizin-7a(5H)-yl)methoxy)-5-methyl-5a,6,7,8,9,10-hexahydro-5H-4-oxa-3,10a,11,13,14-pentaaza-6,9-methanonaphtho[1,8-ab]heptalen-2-yl)-5-methylaniline]",2340,19.6
"Cc1nc(N)cc(-c2nc3c4c(nc(OC[C@@]56CCCN5C[C@H](F)C6)nc4c2F)N2C[C@H]4CC[C@H](N4)[C@H]2[C@H](C)O3)c1OC(F)F [Compound 188, 5-(Difluoromethoxy)-4-((5S,5aS,6S,9R)-1-fluoro-12-(((2R,7aS)-2-fluorotetrahydro-1H-pyrrolizin-7a(5H)-yl)methoxy)-5-methyl-5a,6,7,8,9,10-hexahydro-5H-4-oxa-3,10a,11,13,14-pentaaza-6,9-methanonaphtho[1,8-ab]heptalene-2-yl)-6-methylpyridin-2-amine]",10100,66
"C[C@@H]1Oc2nc(-c3cc(N)cc4c3CCC4)c(F)c3nc(OC[C@@]45CCCN4C[C@H](F)C5)nc(c23)N2C[C@H]3CC[C@H](N3)[C@@H]12 [Compound 83, 7-((5S,5aS,6S,9R)-1-Fluoro-12-(((2R,7aS)-2-fluorotetrahydro-1H-pyrrolizin-7a(5H)-yl)methoxy)-5-methyl-5a,6,7,8,9,10-hexahydro-5H-4-oxa-3,10a,11,13,14-pentaaza-6,9-methanonaphtho[1,8-ab]heptalen-2-yl)-2,3-dihydro-1H-inden-5-amine]",2230,23.7
"Cc1cc(N)c(F)c(-c2nc3c4c(nc(OC[C@@H]5CC[C@H]6COCCN65)nc4c2F)N2C[C@H]4CC[C@H](N4)[C@H]2[C@H](C)O3)c1C(F)(F)C(F)(F)F [Compound 100, 2-Fluoro-3-((5S,5aS,6S,9R)-1-fluoro-12-(((6S,8aS)-hexahydro-1H-pyrrolo[2,1-c][1,4]oxazin-6-yl)methoxy)-5-methyl-5a,6,7,8,9,10-hexahydro-5H-4-oxa-3,10a,11,13,14-pentaaza-6,9-methanonaphtho[1,8-ab]heptalen-2-yl)-5-methyl-4-(perfluoroethyl)aniline]",3970,21.8

# — patent US12338256B2, “Aza-tetracyclic oxazepine compounds and uses thereof” (Genentech, Inc., priority 2022, dated 2025)
